Consider 1 compound from patent US11299480B2, “2-arylsulfonamido-N-arylacetamide derivatized STAT3 inhibitors” (University of Hawaii, priority 2017, dated 2022).

The target of one series is Stat3 (Mus musculus, UniProt P42227). Type of series: biochemical. Conditions: EMSA; read-out: IC50, inhibition of Stat3 DNA-binding activity in vitro. The protocol:
FIG. 1. Effect of select compounds of the present invention on Stat3 DNA-binding activity in vitro. […] Positions of Stat3:DNA complexes in gel are labeled; control lanes (0) represent nuclear extracts pre-treated with 10% DMSO.
Except where indicated, nuclear extracts were pre-incubated with compound for 30 min at room temperature prior to incubation with the radiolabeled probe for 30 min at 30° C. before subjecting to EMSA analysis. Where appropriate, bands corresponding to Stat3:DNA complexes were scanned and quantified for each concentration of compound using ImageJ and plotted as percent of control (DMSO) against concentration of compound, from which the IC50 values were derived.

The next series deals with Stat5. Briefly: Stat5 DNA-binding activity in vitro, EMSA (MGFe probe). Type of series: biochemical. Conditions: 10 μM or 0-30 μM compound. From the text:
FIG. 2. […] Positions of Stat:DNA complexes in gel are labeled; control lanes (0 or Con) represent nuclear extracts pre-treated with 10% DMSO. […] Where appropriate, bands corresponding to Stat3:DNA complexes were scanned and quantified for each concentration of compound using ImageJ and plotted as percent of control (DMSO) against concentration of compound, from which the IC50 values were derived.
Background: Mobility shift assays separate free from complexed probe on a gel.

The subject of a further series is Stat1. Nature of the series: Stat1 DNA-binding activity in vitro, EMSA (MGFe probe). Type of series: biochemical. Conditions: 10 μM or 0-30 μM compound. An excerpt: FIG. 2. Effects of select compounds of the present invention on Stat1 and Stat5 DNA-binding activity. […] Positions of Stat:DNA complexes in gel are labeled; control lanes (0 or Con) represent nuclear extracts pre-treated with 10% DMSO. Data are representative of 1-3 independent determinations. […] Where appropriate, bands corresponding to Stat3:DNA complexes were scanned and quantified for each concentration of compound using ImageJ and plotted as percent of control (DMSO) against concentration of compound, from which the IC50 values were derived. In order to determine the specificity of select new analogs active against Stat3 activity, the inventors investigated the effects on the inhibition of other STAT family members, including Stat1 and Stat5 DNA-binding activity in vitro.

Series [1] concerns pY705Stat3. Briefly: Constitutive Stat3 tyrosine phosphorylation, immunoblot, MDA-MB-231 cells. Type of series: cell-based, human. As to conditions: MDA-MB-231, treatment for 1 h. The protocol:
(§1) FIG. 3. Effects of select compounds of the present invention on Stat3 DNA-binding activity and Stat3 tyrosine phosphorylation in cells. (FIG. 3A) EMSA analysis of Stat3 DNA-binding activity in nuclear extracts of equal total protein prepared from cells treated with DMSO (0 as control, Con), 5 or 10 μM of compounds for 1-34 h. Positions of Stat3:DNA complexes in gel are labeled. […] Positions of Stat3:DNA complexes or proteins in gel are shown; control (0 or Con) lane represents whole-cell lysates or nuclear extracts prepared from 0.05% DMSO-treated cells. […] Data are representative of 2-3 independent determinations.
(§2) All antibodies tested were purchased from Cell Signaling Technology.
(§3) Altogether, the new analogs show strong, albeit variable degrees of inhibition of constitutive Stat3 DNA-binding activity and Tyr phosphorylation in human tumor cells.
(Immunoblotting shows a protein as a band on a membrane.)

Series [2] has as its system pY705Stat3. Briefly: Constitutive Stat3 tyrosine phosphorylation, immunoblot, MDA-MB-468 cells. Type of series: cell-based, human. As to conditions: MDA-MB-468, treatment for 1 h. The protocol: as §1, §2, §3
The subject of series [3] is MDA-MB-231. Nature of the series: Cell growth, trypan blue exclusion/phase-contrast microscopy, MDA-MB-231. Type of series: cell-based, human. The method, then:
(§4) FIG. 5. Effects of select compounds of the present invention on cell viability, growth, colony survival and migration in vitro. […] Cell numbers were counted by trypan blue exclusion/phase-contrast microscopy every […], and cell growth curve was plotted.
(§5) Cells in 6-well or 96-well plates were treated with or without compounds for the indicated concentrations and time, and subjected to MTT assay or CyQuant cell proliferation assay (Invitrogen/ThermoFisher Scientific), or harvested and the viable cells were counted by trypan blue exclusion with phase-contrast microscopy.
(§6) Constitutive Stat3 activity promotes tumor cell growth and proliferation and survival (Darnell J E (2005) Nat Med. 11:595-6; Bowman T, et al., (2000) Oncogene 19:2474-2488). Some of the compounds of the present invention were tested against tumor cells harboring constitutively-active Stat3.

Another series concerns NIH3T3 mouse fibroblasts. Nature of the series: Cell growth, trypan blue exclusion/phase-contrast microscopy, NIH3T3. As to conditions: NIH3T3 (no aberrantly-active Stat3), trypan blue exclusion, 72 h. Type of series: cell-based. The protocol: as §4, §5, §6
In series [4] the test system is MDA-MB-231. Briefly: CyQuant cell viability assay, MDA-MB-231. As to conditions: MDA-MB-231, CyQuant, 0-10 μM, 72 h. Type of series: cell-based, human. The method, then:
(§7) FIG. 6. Effects of select compounds of the present invention on cell viability. […] Cells were first grown in 6-well plates then were treated once with 0-10 μM of the indicated compounds for 72 h. Viable cells were assayed using CyQuant cell proliferation kit and plotted as % cell viability against concentration. Control (0) represents 0.05% DMSO-treated cells. Values, mean ± S.D. of 2-3 independent determinations.
as §5, §6

A further series concerns MDA-MB-468. Briefly: CyQuant cell viability assay, MDA-MB-468. Conditions: MDA-MB-468, CyQuant, 0-10 μM, 72 h. Type of series: cell-based, human. The method, then: as §7, §5, §6
The subject of a further series is MCF7. Nature of the series: CyQuant cell viability assay, MCF7. As to conditions: 72 h. Type of series: cell-based, human. The method, then:
as §7, §5, §6

Chain of Stat3 (P42227 2-770 limits assumed): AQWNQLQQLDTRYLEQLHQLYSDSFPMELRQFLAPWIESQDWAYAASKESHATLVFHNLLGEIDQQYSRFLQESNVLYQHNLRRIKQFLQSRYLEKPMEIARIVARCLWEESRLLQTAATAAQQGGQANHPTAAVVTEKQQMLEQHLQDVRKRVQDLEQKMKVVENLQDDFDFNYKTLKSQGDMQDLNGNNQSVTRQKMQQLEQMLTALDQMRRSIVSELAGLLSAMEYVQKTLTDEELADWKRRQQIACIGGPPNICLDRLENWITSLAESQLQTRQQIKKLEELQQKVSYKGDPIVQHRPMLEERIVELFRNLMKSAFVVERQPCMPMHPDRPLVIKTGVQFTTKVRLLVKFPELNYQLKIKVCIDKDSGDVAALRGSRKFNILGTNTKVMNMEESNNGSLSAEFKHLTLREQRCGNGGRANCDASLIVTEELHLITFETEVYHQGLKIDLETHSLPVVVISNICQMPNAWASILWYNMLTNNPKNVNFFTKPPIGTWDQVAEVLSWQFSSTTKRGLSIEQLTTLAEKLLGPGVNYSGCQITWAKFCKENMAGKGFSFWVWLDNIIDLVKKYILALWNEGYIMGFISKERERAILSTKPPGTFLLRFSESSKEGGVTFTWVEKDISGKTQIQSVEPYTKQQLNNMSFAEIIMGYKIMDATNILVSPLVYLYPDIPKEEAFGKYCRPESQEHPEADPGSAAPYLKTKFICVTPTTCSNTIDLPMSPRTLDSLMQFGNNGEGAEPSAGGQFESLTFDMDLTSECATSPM

The IC50 is the concentration that gives 50% inhibition. With `C[C@H](C(=O)N(Cc1ccc(C2CCCCC2)cc1)c1ccc(C(=O)O)cc1F)N(C)S(=O)(=O)c1c(F)c(F)c(F)c(F)c1F` [Example 37, (R)-4-(N-(4-cyclohexylbenzyl)-2-((2,3,4,5,6-pentafluoro-N-methylphenyl)sulfonamido)propanamido)-3-fluorobenzoic acid], the IC50 on Stat3 turned out to be 1.8 ± 0.94 µM; in the series on MDA-MB-231 [3] (Homo sapiens, MDA-MB-231, 72 h) it was 3.9 µM; in the series on NIH3T3 mouse fibroblasts, 5.1 µM. Moreover, the “effect on Stat5 DNA-binding activity” value in the series on Stat5 is reported as “no measureable effect”. For the same compound, the “effect on Stat1 DNA-binding activity” value in the series on Stat1 is “no measureable effect”. Also, the “constitutive pY705Stat3 levels” value in the series with pY705Stat3 [1] and in the series with pY705Stat3 [2] was “strongly inhibited” in each case. Further, the “cell growth, time- or dose-dependent” value with MDA-MB-231 [3] (printed as MDA-MB-231 and/or MDA-MB-468, trypan blue exclusion, 3 μM Example 37 or 5 μM Example 25, 0-96 h) is “suppressed”. Also, the cell viability result with MDA-MB-231 [4] is recorded as “suppressed the viability”; in the series on MDA-MB-468, “suppressed the viability”; in the series on MCF7 (MCF7 (no aberrantly-active Stat3), CyQuant), “only weakly or not inhibited”. The “toxicity to MCF7 cells” value with MCF7 (10 μM) was “general toxicity”.
